From patent publication US10428080B2, “TBK/IKK inhibitor compounds and uses thereof” (Merck Patent GmbH, priority 2015, dated 2019)
Counter-ions that a name gives are not always drawn.

Legend:
TBK1 = molecular target: T1, TBK1 (Homo sapiens, UniProt Q9UHD2); assay: TBK Biochemical Assay; conditions: read-out: TBK1 IC50
T1 sequence (Q9UHD2 1-729): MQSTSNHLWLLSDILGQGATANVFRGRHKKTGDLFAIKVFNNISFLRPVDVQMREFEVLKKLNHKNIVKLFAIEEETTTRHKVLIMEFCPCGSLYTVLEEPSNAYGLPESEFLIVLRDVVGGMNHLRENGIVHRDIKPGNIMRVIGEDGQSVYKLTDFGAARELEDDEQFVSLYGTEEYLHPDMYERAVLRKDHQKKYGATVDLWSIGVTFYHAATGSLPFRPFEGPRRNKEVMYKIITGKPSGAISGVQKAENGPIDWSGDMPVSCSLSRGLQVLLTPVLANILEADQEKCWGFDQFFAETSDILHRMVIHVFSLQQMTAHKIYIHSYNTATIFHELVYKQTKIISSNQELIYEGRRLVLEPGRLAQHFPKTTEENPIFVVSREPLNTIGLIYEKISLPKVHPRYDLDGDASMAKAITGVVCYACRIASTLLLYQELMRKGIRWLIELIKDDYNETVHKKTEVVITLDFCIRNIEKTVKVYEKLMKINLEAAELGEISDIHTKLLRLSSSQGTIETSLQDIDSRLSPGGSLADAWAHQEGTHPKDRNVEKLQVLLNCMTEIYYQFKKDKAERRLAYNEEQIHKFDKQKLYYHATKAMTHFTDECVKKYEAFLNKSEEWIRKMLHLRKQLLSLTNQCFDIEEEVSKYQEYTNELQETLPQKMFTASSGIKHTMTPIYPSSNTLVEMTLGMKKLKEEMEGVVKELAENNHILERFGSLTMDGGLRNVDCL
In short: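 TBK1 enzyme and substrate incubated with compounds (10-point 1:4 dilution, top 30 uM final, 1% DMSO) for 90 min at 25° C, then stopped. Substrate/product peaks read by microfluidic mobility-shift (Caliper LabChip); 10 uM staurosporine as full-inhibition control.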

IKKε = molecular target: T2, IKKε (Homo sapiens, UniProt Q14164); assay: IKKe Biochemical Assay; conditions: read-out: IKKε IC50
T2 sequence (Q14164 1-716): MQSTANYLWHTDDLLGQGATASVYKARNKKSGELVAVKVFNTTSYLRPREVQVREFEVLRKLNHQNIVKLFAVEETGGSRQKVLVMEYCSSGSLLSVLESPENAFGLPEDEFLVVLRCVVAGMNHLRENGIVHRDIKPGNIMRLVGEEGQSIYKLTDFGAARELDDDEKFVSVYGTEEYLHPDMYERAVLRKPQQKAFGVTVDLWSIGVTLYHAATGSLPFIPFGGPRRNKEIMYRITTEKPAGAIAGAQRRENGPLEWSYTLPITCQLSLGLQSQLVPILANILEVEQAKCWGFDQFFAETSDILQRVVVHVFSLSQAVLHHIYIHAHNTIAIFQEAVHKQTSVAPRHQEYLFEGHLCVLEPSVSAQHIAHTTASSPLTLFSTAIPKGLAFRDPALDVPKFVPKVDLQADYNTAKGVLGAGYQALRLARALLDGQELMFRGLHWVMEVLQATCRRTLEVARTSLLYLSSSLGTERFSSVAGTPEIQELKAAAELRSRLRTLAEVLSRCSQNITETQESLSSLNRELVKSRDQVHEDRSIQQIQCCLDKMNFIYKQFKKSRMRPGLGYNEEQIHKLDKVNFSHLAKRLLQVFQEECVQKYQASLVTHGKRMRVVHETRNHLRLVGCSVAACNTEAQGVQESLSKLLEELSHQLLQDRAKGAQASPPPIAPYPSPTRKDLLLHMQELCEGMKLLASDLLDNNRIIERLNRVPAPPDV
In short: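 Recombinant IKKε and substrate were incubated with compound (10-point 1:4 series, top 30 uM final, 1% DMSO) for 90 min at 25° C, then stopped. Substrate-to-product conversion was read by LabChip microfluidic mobility shift; 10 uM staurosporine served as full-inhibition wells.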

[1] = test system: phosphorylation of the IRF-3 protein in MDA-MB-468 cells; assay: pIRF3 immunocytochemistry cell based assay; conditions: Homo sapiens; MDA-MB-468 cells, Poly(I:C) stimulation; read-out: pIRF3 IC50
Method: The purpose of the pIRF3 immunocytochemistry cell based assay was to identify small molecules which modulates TBK/IKKe kinase activity through on target substrate phosphorylation of the IRF-3 protein. On the first day of the experiment, MDA-MB-468 cells were plated in 384 well, black, clear-bottom, Poly D lysine coated plates at a density of 5000 cells/well in 45 ul of complete DMEM and allowed to adhere overnight. On the second day compounds were added to cells at a starting concentration of 10 uM with a serial dilution of 3-fold for a total of 10 points. The cells were incubated for 1 hr at 37° C. Cells were then stimulated with Poly(I:C) at a final concentration of 10 ug/ml, and were incubated for 2 hr at 37° C. Following the incubation, media was removed from the wells and the cells were fixed with 4% PFA for 15 min at RT. Cells were washed at least 3 times with PBS, and then permeabilized with ice-cold methanol for 10 min at RT. The washing step was repeated and the cells were then blocked using 10% goat serum/1% BSA, made up in PBS and allowed to incubate at RT for 1 hr. The cells were washed again and then treated with an anti-pIRF3 antibody at 4° C. overnight (1:250 dilution of Abcam ab76493 in PBS containing 1% BSA). On the third day the primary antibody was washed off and pIRF3 was detected by adding the secondary antibody conjugated to AlexaFluor488 (1:200 dilution of secondary antibody in PBS containing 1% BSA) for 1 hr at RT. Cells were washed and then counterstained with PI/RNase staining buffer for 15 min at RT and read on the Acumen Explorer laser scanning cytometer. The percentage of phosphorylation of the IRF-3 protein was calculated using the following algorithm, a modified version of the mean half width intensity (pIRF3 staining)/(PI staining or # of cells)×100%). IC50 curves were generated using the Genedata software.

Compound	IC50 (TBK1) [nM]	IC50 (IKKε) [nM]	IC50 [1] [nM]
COc1cc(C(=O)N2CC3CCC(O)C3C2)ccc1-c1cc2nccc(-c3ccc(OC4CCOCC4)c(C#N)c3)c2o1 (stereo not drawn) [Compound 18, 5-{2-[4-(4-Hydroxy-hexahydro-cyclopenta[c]pyrrole-2-carbonyl)-2-methoxy-phenyl]-furo[3,2-b]pyridin-7-yl}-2-(tetrahydro-pyran-4-yloxy)-benzonitrile]	< 100	< 100	100 to 1000
COc1cc(C(=O)N2CC(N3CCCC3)C2)ccc1-c1cc2nccc(-c3ccc(OC4CCOCC4)c(C#N)c3)c2o1 [Compound 20, 5-{2-[2-Methoxy-4-(3-pyrrolidin-1-yl-azetidine-1-carbonyl)-phenyl]-furo[3,2-b]pyridin-7-yl}-2-(tetrahydro-pyran-4-yloxy)-benzonitrile]	< 100	< 100	< 100
COc1cc(C(=O)O)ccc1-c1cc2nccc(-c3ccc(OC4CCOCC4)c(C#N)c3)c2o1 [Compound 21]	< 100	< 100	1000 to 5000
COc1cc(C(=O)N(C)C)ccc1-c1cc2nccc(-c3ccc(N4CC[C@H](F)C4)c(C#N)c3)c2o1 [Compound 23, 4-{7-[3-Cyano-4-((S)-3-fluoro-pyrrolidin-1-yl)-phenyl]-furo[3,2-b]pyridin-2-yl}-3-methoxy-N,N-dimethyl-benzamide]	< 100	< 100	100 to 1000
COc1cc(C(=O)N2CC(N(C)C)C2)ccc1-c1cc2nccc(-c3ccc(OC4CCOCC4)c(C#N)c3)c2o1 [Compound 24, 5-{2-[4-(3-Dimethylamino-azetidine-1-carbonyl)-2-methoxy-phenyl]-furo[3,2-b]pyridin-7-yl}-2-(tetrahydro-pyran-4-yloxy)-benzonitrile]	< 100	< 100	< 100
COc1cc(C(=O)N2CCCC3(CCNC3)C2)ccc1-c1cc2nccc(-c3ccc(OC4CCOCC4)c(C#N)c3)c2o1 (stereo not drawn) [Compound 25, 5-{2-[4-(2,7-Diaza-spiro[4.5]decane-7-carbonyl)-2-methoxy-phenyl]-furo[3,2-b]pyridin-7-yl}-2-(tetrahydro-pyran-4-yloxy)-benzonitrile]	< 100	< 100	100 to 1000
COc1cc(C(=O)N2CCCCC2)ccc1-c1cc2nccc(-c3ccc(OC4CCOCC4)c(C#N)c3)c2o1 [Compound 27, 5-{2-[2-Methoxy-4-(piperidine-1-carbonyl)-phenyl]-furo[3,2-b]pyridin-7-yl}-2-(tetrahydro-pyran-4-yloxy)-benzonitrile]	< 100	< 100	100 to 1000
COc1cc(C(=O)NC2CN(C)C2)ccc1-c1cc2nccc(-c3ccc(OC4CCOCC4)c(C#N)c3)c2o1 [Compound 28, 4-{7-[3-Cyano-4-(tetrahydro-pyran-4-yloxy)-phenyl]-furo[3,2-b]pyridin-2-yl}-3-methoxy-N-(1-methyl-azetidin-3-yl)-benzamide]	< 100	< 100	< 100
COc1cc(C(=O)N2CC3(CCCN3)C2)ccc1-c1cc2nccc(-c3ccc(OC4CCOCC4)c(C#N)c3)c2o1 [Compound 29, 5-{2-[4-(2,5-Diaza-spiro[3.4]octane-2-carbonyl)-2-methoxy-phenyl]-furo[3,2-b]pyridin-7-yl}-2-(tetrahydro-pyran-4-yloxy)-benzonitrile hydrochloride]	< 100	< 100	100 to 1000
COc1cc(C(=O)N(C)C)ccc1-c1cc2nccc(-c3ccc(OC4CCOCC4)c(C#N)n3)c2o1 [Compound 31, 4-{7-[6-Cyano-5-(tetrahydro-pyran-4-yloxy)-pyridin-2-yl]-furo[3,2-b]pyridin-2-yl}-3-methoxy-N,N-dimethyl-benzamide]	< 100	< 100	< 100
COc1cc(C(=O)N2C[C@H]3C[C@@H](O)C[C@H]3C2)ccc1-c1cc2nccc(-c3ccc(OC4CCOCC4)c(C#N)c3)c2o1 [Compound 32, 5-{2-[4-((3aR,5R,6aS)-5-Hydroxy-hexahydro-cyclopenta[c]pyrrole-2-carbonyl)-2-methoxy-phenyl]-furo[3,2-b]pyridin-7-yl}-2-(tetrahydro-pyran-4-yloxy)-benzonitrile]	< 100	< 100	< 100
COc1cc(C(=O)N2CC[C@@H](N(C)C)C2)ccc1-c1cc2nccc(-c3ccc(N4CC[C@H](F)C4)c(C#N)c3)c2o1 [Compound 33, 5-{2-[4-((R)-3-Dimethylamino-pyrrolidine-1-carbonyl)-2-methoxy-phenyl]-furo[3,2-b]pyridin-7-yl}-2-((S)-3-fluoro-pyrrolidin-1-yl)-benzonitrile]	< 100	< 100	100 to 1000
COc1cc(C(=O)N2CCC3(CC2)NCNC3=O)ccc1-c1cc2nccc(-c3ccc(NC4CCOCC4)c(C#N)c3)c2o1 [Compound 34, 5-{2-[2-Methoxy-4-(4-oxo-1,3,8-triaza-spiro[4.5]decane-8-carbonyl)-phenyl]-furo[3,2-b]pyridin-7-yl}-2-(tetrahydro-pyran-4-ylamino)-benzonitrile]	< 100	< 100	100 to 1000
COc1cc(C(=O)N(C)C)ccc1-c1cc2nccc(-c3ccc(N4CCC(F)C4)c(C#N)c3)c2o1 (stereo not drawn) [Compound 35]	< 100	< 100	100 to 1000
COc1cc(C(=O)N(C)C)ccc1-c1cc2nccc(-c3ccc(NCC4CCOC4)c(C#N)c3)c2o1 (stereo not drawn) [Compound 36]	< 100	< 100	100 to 1000
COc1cc(C(=O)N2CCCC2)ccc1-c1cc2nccc(-c3ccc(OC4CCOCC4)c(C#N)c3)c2o1 [Compound 37, 5-{2-[2-Methoxy-4-(pyrrolidine-1-carbonyl)-phenyl]-furo[3,2-b]pyridin-7-yl}-2-(tetrahydro-pyran-4-yloxy)-benzonitrile]	< 100	< 100	100 to 1000
COc1cc(C(=O)N2CC(CO)C2)ccc1-c1cc2nccc(-c3ccc(OC4CCOCC4)c(C#N)c3)c2o1 [Compound 38, 5-{2-[4-(3-Hydroxymethyl-azetidine-1-carbonyl)-2-methoxy-phenyl]-furo[3,2-b]pyridin-7-yl}-2-(tetrahydro-pyran-4-yloxy)-benzonitrile]	< 100	< 100	100 to 1000
